What all share (assay): NanoBRET target engagement (tracer displacement) in intact HEK293T cells
What all share (type): cell-based
In general terms: In BRET a luciferase serves as donor, and the signal depends on an acceptor being close.

Test [1] concerns the target T1, DYRK2 (Homo sapiens, UniProt Q92630).
T1 construct: Full-length, terminal NanoLuc fusion
T1 sequence (Q92630 1-601): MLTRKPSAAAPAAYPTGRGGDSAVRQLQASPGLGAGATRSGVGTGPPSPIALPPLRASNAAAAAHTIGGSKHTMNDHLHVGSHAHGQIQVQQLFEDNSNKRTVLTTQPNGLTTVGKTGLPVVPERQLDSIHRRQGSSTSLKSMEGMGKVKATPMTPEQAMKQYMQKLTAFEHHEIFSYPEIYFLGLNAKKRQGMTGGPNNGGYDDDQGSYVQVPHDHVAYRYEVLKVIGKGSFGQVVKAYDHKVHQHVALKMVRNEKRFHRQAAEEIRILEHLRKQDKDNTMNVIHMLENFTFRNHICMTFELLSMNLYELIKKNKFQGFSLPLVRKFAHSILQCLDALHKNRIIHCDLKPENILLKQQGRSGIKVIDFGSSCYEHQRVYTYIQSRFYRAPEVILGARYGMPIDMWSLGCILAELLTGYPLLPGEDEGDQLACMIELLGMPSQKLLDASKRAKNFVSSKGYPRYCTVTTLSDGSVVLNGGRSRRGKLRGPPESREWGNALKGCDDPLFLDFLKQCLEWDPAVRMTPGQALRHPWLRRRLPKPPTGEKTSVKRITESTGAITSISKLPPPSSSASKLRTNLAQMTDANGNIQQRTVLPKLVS

The target in test [2] is T2, CLK2 (Homo sapiens, UniProt P49760).
T2 construct: Full-length, terminal NanoLuc fusion

The target of test [3] is T3, CLK1 (Homo sapiens, UniProt P49759).
T3 construct: Full-length, terminal NanoLuc fusion

Test [4] concerns the target T4, DYRK1A (Homo sapiens, UniProt Q13627).
T4 construct: Full-length, terminal NanoLuc fusion

For test [5], the target named is T5, CLK4 (Homo sapiens, UniProt Q9HAZ1).
T5 construct: Full-length, terminal NanoLuc fusion

The target of test [6] is T6, DYRK1B (Homo sapiens, UniProt Q9Y463).
T6 construct: Full-length, terminal NanoLuc fusion

The structures appear in SMILES notation.

EC50 data for one compound are collected here from publication PMC11846820, “Inhibition of DYRK1B BY C81 impedes inflammatory processes in leukocytes by reducing STAT3 activity” (Cellular and Molecular Life Sciences: CMLS, 2025).

By EC50 is commonly meant the concentration needed to bring the measured effect to its halfway point.

T5 sequence (Q9HAZ1 whole entry, the tested form may be a part): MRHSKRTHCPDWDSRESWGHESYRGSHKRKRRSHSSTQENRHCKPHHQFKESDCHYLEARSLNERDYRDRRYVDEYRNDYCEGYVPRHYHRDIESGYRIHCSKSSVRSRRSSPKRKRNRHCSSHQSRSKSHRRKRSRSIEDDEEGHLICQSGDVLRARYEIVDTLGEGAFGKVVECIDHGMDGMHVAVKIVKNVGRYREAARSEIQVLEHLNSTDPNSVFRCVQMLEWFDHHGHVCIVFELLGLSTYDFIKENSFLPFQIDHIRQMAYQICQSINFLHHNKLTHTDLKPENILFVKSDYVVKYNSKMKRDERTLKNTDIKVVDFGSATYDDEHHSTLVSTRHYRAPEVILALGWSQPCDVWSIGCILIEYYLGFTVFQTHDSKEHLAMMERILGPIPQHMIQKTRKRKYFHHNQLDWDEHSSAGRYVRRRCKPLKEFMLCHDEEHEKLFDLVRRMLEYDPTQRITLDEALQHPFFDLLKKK
T2 sequence (P49760 whole entry, the tested form may be a part): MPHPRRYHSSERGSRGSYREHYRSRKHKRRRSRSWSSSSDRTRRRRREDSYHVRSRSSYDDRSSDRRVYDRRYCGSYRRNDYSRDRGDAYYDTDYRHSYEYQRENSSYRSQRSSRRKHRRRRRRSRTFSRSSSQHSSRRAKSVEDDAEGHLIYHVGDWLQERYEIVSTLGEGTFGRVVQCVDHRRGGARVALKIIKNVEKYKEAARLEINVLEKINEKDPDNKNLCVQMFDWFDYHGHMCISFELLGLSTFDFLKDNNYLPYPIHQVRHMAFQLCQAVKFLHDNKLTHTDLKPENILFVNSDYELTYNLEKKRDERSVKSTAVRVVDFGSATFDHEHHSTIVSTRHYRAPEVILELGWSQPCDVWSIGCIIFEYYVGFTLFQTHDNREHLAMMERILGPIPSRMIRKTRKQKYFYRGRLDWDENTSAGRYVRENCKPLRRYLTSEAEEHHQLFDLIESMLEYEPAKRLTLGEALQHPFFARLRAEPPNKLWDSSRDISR
T6 sequence (Q9Y463 whole entry, the tested form may be a part): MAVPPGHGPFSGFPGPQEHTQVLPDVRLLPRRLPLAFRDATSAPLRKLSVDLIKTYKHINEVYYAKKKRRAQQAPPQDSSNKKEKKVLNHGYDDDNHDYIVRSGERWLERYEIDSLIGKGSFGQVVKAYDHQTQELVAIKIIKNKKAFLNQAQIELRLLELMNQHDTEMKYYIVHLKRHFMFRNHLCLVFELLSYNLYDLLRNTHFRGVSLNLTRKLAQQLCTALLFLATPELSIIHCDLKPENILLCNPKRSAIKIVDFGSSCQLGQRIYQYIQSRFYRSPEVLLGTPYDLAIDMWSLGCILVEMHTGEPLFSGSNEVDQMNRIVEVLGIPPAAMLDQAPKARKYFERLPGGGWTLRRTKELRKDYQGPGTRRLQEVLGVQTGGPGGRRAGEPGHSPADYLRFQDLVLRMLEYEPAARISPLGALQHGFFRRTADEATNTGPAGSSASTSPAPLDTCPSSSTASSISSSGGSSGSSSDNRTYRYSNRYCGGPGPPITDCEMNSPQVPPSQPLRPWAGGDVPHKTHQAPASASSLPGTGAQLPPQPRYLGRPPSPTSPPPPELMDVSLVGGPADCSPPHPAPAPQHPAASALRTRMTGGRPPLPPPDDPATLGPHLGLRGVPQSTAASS
T3 sequence (P49759 whole entry, the tested form may be a part): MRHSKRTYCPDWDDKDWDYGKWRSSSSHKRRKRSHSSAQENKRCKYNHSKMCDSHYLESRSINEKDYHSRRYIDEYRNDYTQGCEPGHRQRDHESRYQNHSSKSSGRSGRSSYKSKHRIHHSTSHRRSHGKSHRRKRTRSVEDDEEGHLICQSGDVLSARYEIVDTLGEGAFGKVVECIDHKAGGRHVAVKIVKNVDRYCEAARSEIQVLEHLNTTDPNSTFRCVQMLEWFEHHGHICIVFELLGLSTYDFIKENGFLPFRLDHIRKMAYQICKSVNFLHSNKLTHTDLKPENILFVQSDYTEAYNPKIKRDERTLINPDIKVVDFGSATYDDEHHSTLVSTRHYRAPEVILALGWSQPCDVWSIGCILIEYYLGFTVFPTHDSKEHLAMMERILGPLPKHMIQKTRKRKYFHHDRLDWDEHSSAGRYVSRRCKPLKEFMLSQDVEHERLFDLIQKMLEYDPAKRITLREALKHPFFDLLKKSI

For `Cc1nccc(-c2cn(Cc3ccccc3)c3cnccc23)n1` [AZ-DYRK1B-33], the EC50 in test [1] was found to be 3.4 µM; in test [2] it was 5 µM; in test [3], 299 nM; in test [4], 3.8 µM; in test [5], 119 nM; in test [6] it was 537 nM.
